Data: US20190290656A1, “PT(IV) PRODRUGS” (YISSUM RESEARCH DEVELOPMENT COMPANY OF THE HEBREW …, priority 2015, published 2019)
Read-outs that look alike come from different tables or passages of the source.

Experiments:
[1] = tested on: PC3 cells; assay: MTT cytotoxicity assay, PC3; type: cell-based, human; settings: PC3, 72 h exposure, read-out: IC50 (median growth inhibitory concentration)
Experimental: (§1) Cisplatin (CDDP) and oxaliplatin (OXP) were dissolved just before the experiment in a 0.9% NaCl solution.
(§2) Human prostate adenocarcinoma (PC3) cells were obtained from European Collection of Cell Cultures (ECACC, Salisbury, UK). Human ovarian cancer cell lines A2780 and its cisplatin resistant variant, A2780cisR, were kindly provided by Prof.
(§3) Triplicate cultures were established for each treatment.

[2] = tested on: MCF-7 cells; assay: MTT cytotoxicity assay, MCF-7; type: cell-based, human
Experimental: as §1, §2, §3

[3] = tested on: Lewis lung carcinoma (LLC); assay: In vivo efficacy study, Lewis lung carcinoma mouse model; design: species or system C57BL mice; settings: oral vs cisplatin ip
Experimental: A preliminary in vivo efficacy study was carried out on a mouse model (see Table 3 below):
Lewis lung carcinoma (LLC) was implanted i.m. (2·10^6 cells inoculum) into the right hind leg of 8-week old inbred C57BL mice (24±3 g body weight). Chemotherapy was delayed until the tumor became visible (day 7).

[4] = octanol/water partition, shake-flask method; type: physicochemical
Experimental: To quantify the hydrophobicity of the platinum complexes, partition coefficients (log P) values for octanol/water partition were measured using the shake-flask method.

[5] = tested on: A375 cells; assay: MTT cytotoxicity assay, A375; type: cell-based, human
Experimental: (§4) Cisplatin (CDDP) and oxaliplatin (OXP) were dissolved just before the experiment in a 0.9% NaCl solution. […]
(§5) Cancer Res. 1988, 48, 589-601]. […] Triplicate cultures were established for each treatment.
(§6) MTT assay. […] Triplicate cultures were established for each treatment.
(§7) The two dimers, 3a and 3b, as well as compounds 1a and 2a were screened against six human cancer cell lines representative of lung (H157), colon (HCT-15), cervical (A431), ovarian (2008) and pancreatic (PSN1) cancers, along with melanoma (A375). Cytotoxicity was evaluated by means of the MTT test after 72 h of treatment and the in vitro antitumor potential of newly synthesized derivatives was compared to that of the reference metallo-drugs CDDP and OXP.

[6] = tested on: BxPC3 cells; assay: MTT cytotoxicity assay, BxPC3; type: cell-based, human
[7] = tested on: A2780 cells; assay: MTT cytotoxicity assay, A2780; type: cell-based, human; settings: A2780, 72 h exposure, MTT; read-out: IC50 (median growth inhibitory concentration)
Experimental: (§8) Platinum(IV) complexes were dissolved in DMSO to stock solutions of 1 mg/mL just before the experiment, and a calculated amount of drug solution was added to the cell growth medium to a final solvent concentration of 0.5%, which had no discernible effect on cell killing. Cisplatin (CDDP) and oxaliplatin (OXP) were dissolved just before the experiment in a 0.9% NaCl solution.
as §2, §5

[8] = tested on: nine cancer cell lines; assay: MTT cytotoxicity, over the nine cancer cell lines; settings: for average fold more potent than cisplatin: average over cell lines
[9] = tested on: A498 cells; assay: MTT cytotoxicity assay, A498; type: cell-based, human; settings: A498, 72 h exposure, read-out: IC50 (median growth inhibitory concentration)
Experimental: as §8, §2, §5

[10] = tested on: A549 cells; assay: MTT cytotoxicity assay, A549; type: cell-based, human
Experimental: as §1, §2, §3

[11] = tested on: MCF-7 cells; assay: Nuclear DNA fragmentation ELISA, MCF-7; type: cell-based, human; settings: MCF-7, 24 h, IC50 concentrations
Text: FIGS. 4A-4C describe: FIG. 4A—Nuclear DNA fragmentation. […] Quantitative estimation of DNA fragmentation was obtained with an ELISA test. Data are the means of five independent experiments. Error bars indicate SD. […] FIG. 4C—Caspase activity. […] Data are the means of at least three independent experiments. Error bars indicate SD.
To gain more insights into the mode of action of newly synthesized Pt(IV) derivatives, compounds 1 and 6 were chosen for further experiments. In particular, their capacity to induce apoptosis against human breast MCF-7 cells treated with equitoxic concentrations (IC50 values) of these drugs was evaluated and compared. Nuclear DNA fragmentation and apoptosome complex formation are critical steps in the apoptotic process. […] Apoptotic cell death induction was confirmed through a Hoechst 33342 staining.

[12] = tested on: Histone deacetylase (HDAC); assay: Histone deacetylase assay (Fluor-de-Lys) in MCF-7 cells; type: cell-based, human
Experimental: Histone deacetylase activity was determined using Fluor-de-Lys® HDAC fluorometric activity assay kit (Enzo Life Sciences International, Inc., Plymount Meeting, Pa., U.S.A.). […] Fluorescence was measured using a Fluoroskan Ascent FL (Labsystem, Finland) plate reader, with excitation at 360 nm and emission at 460 nm. For comparison purpose, the HDAC activity was also measured in nuclear extracts of MCF-7-treated cells by means of the same fluorometric activity assay kit. In this latter case, MCF-7 nuclear extracts were obtained as follow: cell pellets were re-suspended in lysis buffer [Tris.HCl (10 mM, pH 8.0), KCl (60 mM), EDTA (1.2 mM), DTT (1 mM), PMSF (0.05 mM), NP-40 (0.05%)] and kept on ice for 10 min. Subsequently, samples were centrifuged at 1000 g and re-suspended in the nuclear extraction buffer [Tris.HCl (20 mM, (pH 8.0), NaCl (420 mM), MgCl2 (0.7 mM), EDTA (0.25 mM), glycerol (25%)] for 30 min at 4° C., and then centrifuged at 15000 g for 15 min at 4° C.
The complexes described here were specifically designed to release either VPA of PhB inside the cells in the hope that they will inhibit HDAC activity paving the way for more efficient DNA platination. Thus, in addition to measuring the levels of DNA platination, we also measured the ability of these pro-drugs to inhibit HDAC activity in cells. […] For comparison purposes, the HDAC inhibitory effect determined by tested complexes was also assayed in isolated nuclei of MCF-7 treated cells (FIG. 3B).
The HDAC activity was determined by the Fluor de Lys® Fluorescent Cellular Activity Assay (Enzo Life Sciences).
Also, MCF-7 cells were incubated for 24 h with increasing concentrations of compounds I-VIII and their HDAC activity was determined. The IC50 values for the inhibition of HDAC activity in the cells are depicted in FIG. 3C.

[13] = tested on: HCT-15 cells; assay: MTT cytotoxicity assay, HCT-15; type: cell-based, human
Experimental: as §4, §5, §6, §7

[14] = tested on: A2780cisR cells; assay: MTT cytotoxicity assay, A2780cisR (cisplatin resistant); type: cell-based, human; settings: A2780cisR, 72 h exposure, MTT; read-out: IC50 (median growth inhibitory concentration)
Experimental: as §8, §2, §5

[15] = tested on: PSN-1 spheroids; assay: 3D spheroid APH assay, PSN-1; type: cell-based, human; settings: PSN-1 spheroids, 72 h, APH test
Text: (§9) Acid phosphatase (APH) assay. A modified APH assay, which is based on quantification of cytosolic acid phosphatase activity, was used for determining cell viability in spheroids. […] Triplicate cultures were established for each treatment. […] Evaluation was based on means from at least four independent experiments.
(§10) In order to improve the predictive capacity of the in vitro assays, we tested the activity in three three-dimensional (3D) cell cultures; human colon cancer cells, HCT-15, and human pancreatic cancer cells, KRAS wild type BxPC3 cells KRAS mutated PSN-1 cells. The cancer spheroids were treated with 3a and 3b for 72 h and the cell viability was assessed by means of the APH assay (Table 6). For comparison purposes, the cytotoxicities of CDDP and OXP were evaluated under the same experimental conditions.

[16] = tested on: PSN1 cells; assay: MTT cytotoxicity assay, PSN1; type: cell-based, human; settings: PSN1, 72 h, MTT
Experimental: as §6, §7

[17] = tested on: 2008 cells; assay: MTT cytotoxicity assay, 2008; type: cell-based, human; settings: 2008, 72 h, MTT
Experimental: as §6, §7

[18] = tested on: 2008 cells; assay: Glycolysis (Mito-ID O2 sensor), 2008; type: cell-based, human; settings: IC50 concentrations, 24 h
Experimental: (§11) Glycolysis. The cellular glycolytic activity was assessed using the Mito-ID® O2 Extracellular Sensor Kit according to the manufacturer's instructions (Enzo Life Sciences, Farmingdale, N.Y.). Briefly, PSN-1 cells (15·10^3 per well) were seeded in 96-well plates. After 24 h, cells were treated with Mito-ID® O2 Sensor Probe Solution containing the tested compounds at the appropriate concentration. Fluorescence was estimated using a plate reader (Fluoroskan Ascent FL, Labsystem, Finland) at 350 nm (excitation) and 610 nm (emission).
(§12) Based on the above findings, we investigated the effects determined by derivatives 3a and 3b on 2008 and PSN-1 cancer cell aerobic glycolysis and mitochondria function.
(§13) However, these effects were magnified in PSN-1 cells, having reduction of cellular glycolytic activity of about 36 and 20% for 3a and 3b, respectively. […] This latter result could be explained tacking into consideration that the reference compound [Pt(DACH)(56Phen)] itself, that is also released upon reduction of 3a and 3b, is effective in hampering cellular glycolysis in both tested cancer cell lines. The difference between 3a and 3b might be attributed to the added effect of DCA.

[19] = tested on: H157 cells; assay: MTT cytotoxicity assay, H157; type: cell-based, human; settings: H157, 72 h
Experimental: as §6, §7

[20] = tested on: PSN-1 cells; assay: Glycolysis (Mito-ID O2 sensor), PSN-1; type: cell-based, human; settings: IC50 concentrations, 24 h
Experimental: as §11, §12, §13

[21] = tested on: BxPC3 spheroids; assay: 3D spheroid APH assay, BxPC3; type: cell-based, human; settings: 72 h, APH test
Text: as §9, §10

[22] = tested on: A431 cells; assay: MTT cytotoxicity assay, A431; type: cell-based, human; settings: A431, 72 h
Experimental: as §6, §7

[23] = tested on: human embryonic kidney HEK293 cells; assay: MTT cytotoxicity against non-tumor cells; type: cell-based
Experimental: as §6
The cytotoxic activity of derivatives 3a and 3b was also evaluated against non-tumor cells, namely human embryonic kidney HEK293 cells (Table 7). Both compounds 3a and 3b were more cytotoxic than CDDP.

[24] = tested on: Histone deacetylase (HDAC); assay: Histone deacetylase assay in PSN-1 cells; type: cell-based, human; settings: 24 h, IC50 concentrations
Experimental: (§14) Histone deacetylase assay. Histone deacetylase activity was determined using Fluor-de-Lys® HDAC fluorometric activity assay kit (Enzo Life Sciences International, Inc., Plymount Meeting, Pa., U.S.A.). 2008 and PSN1 cells (5.10^4 seeded in 96-well microplates) were treated for 24 h with tested complexes, and then processed as reported by the manufacturer's instructions. Fluorescence was measured using a Fluoroskan Ascent FL (Labsystem, Finland) plate reader, with excitation at 360 nm and emission at 460 nm.
(§15) Thus, we measured both the levels of DNA platination and the ability of these pro-drugs to inhibit HDAC activity in cancer cells.

[25] = tested on: HCT-15 spheroids; assay: 3D spheroid APH assay, HCT-15; type: cell-based, human; settings: HCT-15 spheroids, 72 h, APH test
Text: as §9, §10

[26] = tested on: Histone deacetylase (HDAC); assay: Histone deacetylase assay in 2008 cells; type: cell-based, human; settings: 24 h, IC50 concentrations
Experimental: as §14, §15

[NH2][Pt]([NH2])([Cl])([Cl])([O]C(=O)CCCc1ccccc1)[O]C(=O)CCCc1ccccc1 [Compound VI, ctc-[Pt(NH3)2(C10H11O2)2Cl2]]
IC50 [1]: 410 ± 60 nM | times more effective/potent than cisplatin ([2]; MCF-7): ~100 fold | IC50 ([2]; MCF-7, 72 h exposure, MTT, read-out: IC50 (median growth inhibitory concentration)): 180 ± 30 nM | in vivo efficacy by oral administration (in words) [3]: nearly as effective in this model as cisplatin | Log P [4]: −0.73 ± 0.05 | IC50 ([5]; A375, 72 h exposure, MTT (Table 1), read-out: IC50 (median growth inhibitory concentration)): 0.16 ± 0.02 µM | times more effective/potent than cisplatin ([6]; BxPC3): ~60 fold | IC50 ([6]; BxPC3, 72 h exposure, MTT, read-out: IC50 (median growth inhibitory concentration)): 190 ± 10 nM | IC50 [7]: 140 nM | average fold more potent than cisplatin ([8]; listed as Ctc-[Pt(NH3)2(PhB)2Cl2]): 50 fold | average fold more potent than cisplatin ([8]; listed as ctc-[Pt(NH3)2(PhB)2Cl2]): about 24 fold | fold improvement in potency on replacing both VPA ligands with PhB (VI vs I) ([8]; on the average): ~5 fold | fold more potent than the mono-PhB monoacetate complex ([8]; range over cell lines): 4.6-53 fold | IC50 ([8]; read-out: average IC50 values for the nine cancer cell lines, mean over nine cell lines, 72 h MTT): 230 nM | IC50 ([8]; read-out: range of IC50 values over the cell lines, lowest-highest over nine cell lines): 120 to 430 nM | IC50 [9]: 430 ± 20 nM | fold more potent than cisplatin ([10]; A549): ~50 fold | IC50 ([10]; A549, 72 h exposure, MTT, read-out: IC50 (median growth inhibitory concentration)): 170 ± 40 nM | times higher induction of nucleosome formation compared with cisplatin [11]: 2 fold | IC50 for cellular inhibition of HDAC activity (in words) ([12]; MCF-7, 24 h, increasing concentrations): highest inhibitory effect | inhibition of HDAC activity ([12]; MCF-7, 24 h incubation with IC50 concentrations): approximately 70% | IC50 ([13]; HCT-15, 72 h exposure, MTT (Table 1), read-out: IC50 (median growth inhibitory concentration)): 0.31 ± 0.04 µM | IC50 [14]: 120 nM

c,c,t,t,c,c-[(DACH)(56Phen)(OAc)Pt(μ-OOC—(CH2)2—CONH(CH2)3COO)-Pt(OAc)(NH3)2(Cl2)](TFA)2 [Compound 3b]
IC50 [15]: 60.5 ± 5.76 µM | IC50 [16]: 6.12 µM | IC50 [17]: 6.04 µM | reduction of glycolysis processes compared with untreated control cells [18]: ~14% | IC50 [19]: 8.25 ± 1.21 µM | reduction of cellular glycolytic activity [20]: ~20% | IC50 ([5]; A375, 72 h, MTT (Table 5), read-out: IC50 (μM) ± S.D.): 1.05 ± 0.18 µM | IC50 [21]: 81.3 ± 6.25 µM | IC50 [22]: 5.25 ± 0.41 µM | IC50 ([23]; HEK293 non-tumor cells, 72 h, MTT): 7.8 ± 3.36 µM | SI (selectivity index) ([23]; ratio between average IC50 of non-tumor cells and IC50 of malignant cells): 1.7 | HDAC activity hampered [24]: not effective in modifying HDAC activity | IC50 [25]: 75.9 ± 4.52 µM | HDAC activity hampered [26]: not effective in modifying HDAC activity | IC50 ([13]; HCT-15, 72 h, MTT (Table 5), read-out: IC50 (μM) ± S.D.): 1.89 ± 0.69 µM
